Experimental findings from US7776570B2, “L-amino acid amide asymmetric hydrolase and DNA encoding the same” (Mitsubishi Gas Chemical Company, Inc., priority 2004, dated 2010) are described below.

In assay [1] the test system is X. flavus living cells. Briefly: Asymmetric hydrolysis of 2-methylcysteine amide racemic mixture by using a wild-type microorganism. The settings on record: for 2-methylcysteine produced: 30° C., 24 hours, HPLC condition B; for optical purity of the L-amino acid: supernatant, HPLC condition A. Type of assay: biochemical, Xanthobacter flavus. The protocol: A medium having a composition as shown in the following Table 5 was prepared, and 200 mL of the medium was poured into a 1-L conical flask and sterilized. After that, X. flavus was inoculated thereto and shaking culture was performed at 30° C. for 170 hours. Subsequently, the culture solution was subjected to centrifugation, to thereby obtain living cells corresponding to 0.1 g of dry cells.
10.0 g (58.6 mmol) of racemic mixture of 2-methylcysteine amide hydrochloride was dissolved into 300 mL of 50 mM phosphate buffer (pH 7.0). After that, the mixture was poured into a 500-mL flask, which was added with an aqueous manganese chloride solution such that the concentration of a divalent Mn ion became 10 ppm, and further added with the living cells corresponding to 0.01 g of dry cells, followed by stirring culture at 30° C. for 24 hours under a nitrogen stream to allow a hydrolysis reaction to proceed. After completion of the reaction, the reaction solution was subjected to centrifugation to remove the cells, and the supernatant was analyzed under the HPLC condition B as shown in the following Table 6.
10 L of the culture solution obtained after culture in the medium composition in Comparative Example 1 was subjected to centrifugation, to thereby obtain living cells corresponding to 5 g of dry cells of X. flavus. 10.0 g (58.6 mmol) of a racemic mixture of 2-methylcysteine amide hydrochloride was dissolved into 300 mL of 50 mM phosphate buffer (pH 7.0). After that, the mixture was poured into 500-mL flask, which was added with an aqueous manganese chloride solution such that the concentration of a divalent Mn ion became 10 ppm, and further added with the living cells corresponding to 5 g of dry cells, followed by stirring culture at 30° C. for 24 hours under a nitrogen stream to allow a hydrolysis reaction to proceed. After completion of the reaction, the reaction solution was subjected to centrifugation to remove the cells therefrom, and the supernatant was analyzed under the HPLC condition B. As a result, it was confirmed that 28.2 mmol of 2-methylcysteine was produced. In addition, the supernatant was analyzed under the HPLC condition A, and as a result, the optical purity of the L-amino acid was not less than 98% e.e.
A biochemical asymmetric hydrolysis reaction was performed in the same manner as in Comparative Example 2 except that the aqueous manganese chloride solution was not added. The reaction was performed at 30° C. for 24 hours. After completion of the reaction, the reaction solution was subjected to centrifugation to remove the cells therefrom, and then the supernatant was analyzed under the HPLC condition B. As a result, it was confirmed that 13.9 mmol of 2-methylcysteine was produced. In addition, the supernatant was analyzed under the HPLC condition A, and as a result, the optical purity of the L-amino acid was not less than 98% e.e.

Assay [2] deals with L-amino acid amide asymmetric hydrolase (transformant strain pMCA1/JM109 cells). Briefly: Asymmetric hydrolysis of racemic amino acid amides by using the transformant pMCA1/JM109. Type of assay: biochemical, Xanthobacter flavus. As to conditions: 0.1% substrate, 50 mM phosphate buffer pH 7.0, 30° C. The procedure:
A medium having a composition as shown in the following Table 3 was prepared, and 200 mL of the medium was poured into 1-L conical flask and sterilized. After that, the medium was added with 50 μg/mL ampicillin and then inoculated with the transformant strain pMCA1/JM109, followed by shaking culture at 37° C. for 15 hours. Subsequently, the culture solution was subjected to centrifugation, to thereby obtain living cells corresponding to 0.1 g of dry cells.
Enzymatic reactions were performed by using a culture solution of the transformant strain pMCA 1/JM109 which had been cultured in the same manner as in Example 7 and a racemic mixture of various amino acid amides as a substrate. Each of the substrate compound was dissolved into 50 mM phosphate buffer (pH 7.0) such that the substrate concentration was adjusted to 0.1%, and the substrate solution was added with the cells to perform an enzymatic reaction at 30° C. […] In any of the reactions, selectivity of hydrolysis is selective to an L-form, and optical purity of the produced L-amino acid was not less than 98% e.e.

[3] abbreviates: 5 g dry cells, no manganese chloride added.
Where [4] appears, read: substrate weight/dry cell weight 0.01, reaction time 5 hr.
[5] abbreviates: substrate weight/dry cell weight 0.01, reaction time 24 hr.
[6] abbreviates: substrate weight/dry cell weight 0.1, reaction time 24 hr.

On to `C[C@](N)(CS)C(N)=O.Cl` (racemic) [2-methylcysteine amide, 2-methylcysteine amide hydrochloride], for which the 2-methylcysteine produced entry in assay [1] (0.01 g dry cells, 58.6 mmol substrate, 10 ppm divalent Mn ion) is given as “no 2-methylcysteine as a product was observed”; in assay [1] (5 g dry cells, 58.6 mmol substrate, 10 ppm divalent Mn ion) it was 28.2 mmol; in assay [1] (setting [3]), 13.9 mmol. Further, the “optical purity of the L-amino acid” value in assay [1] (5 g dry cells, 10 ppm divalent Mn ion) is “not less than 98 % e.e”; in assay [1] (setting [3]), “not less than 98 % e.e”.
In assay [2] (setting [4]), `NC(=O)[C@@H](N)Cc1ccccc1` (racemic) [Phenylalanine amide] had a Reaction rate of 47.8%.
Consider `NC(=O)C(N)c1ccccc1` (racemic) [Phenylglycine amide], for which the Reaction rate in assay [2] (setting [4]) came to 48.8%.
For `CC(C)[C@H](N)C(N)=O` (racemic) [Valine amide], in assay [2] (setting [5]), the Reaction rate worked out at 44.3%.
The molecule `CC(C)(S)[C@H](N)C(N)=O` (racemic) [penicillamine amide] yielded a Reaction rate in assay [2] (setting [4]) of 44.9%.
In turn, `CC(C)(C)[C@H](N)C(N)=O` (racemic) [t-leucine amide] registered a Reaction rate in assay [2] (setting [6]) of 44.4%.
On to `CCC(N)C(N)=O` (stereo not shown) [2-amino butyrate amide], for which the Reaction rate in assay [2] (substrate weight/dry cell weight 0.1, reaction time 5 hr) came to 49.2%.
As for `CC1(C)SCNC1C(N)=O` (stereo not shown) [5,5-dimethylthiazolidin-4-carboxylate amide], the Reaction rate in assay [2] (setting [6]) came out at 47.0%.
Allicin amide ethylene acetal came in with a Reaction rate in assay [2] (setting [5]) of 44.3%.
